Laboratory results from the supplement of paper PMC10307832.

Assays:
Assay in all cases: relative viability (nuclei count vs DMSO), 5 days (fraction); higher = more cells survive
EHT 1864 + Pemetrexed = compound: C1COCCN1CC2=CC(=O)C(=CO2)OCCCCCSC3=C4C=CC(=CC4=NC=C3)C(F)(F)F [EHT 1864] + Nc1nc2[nH]cc(CCc3ccc(C(=O)N[C@@H](CCC(=O)O)C(=O)O)cc3)c2c(=O)[nH]1 [Pemetrexed] (partner 0.2 µM)
Method in brief: (§1)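 For relative viability, nuclei counts in treated wells were divided by those in vehicle wells. Lung cancer cell lines had been pin-tool dosed in 1536-well plates the day after seeding and cultured for 5 days, then fixed and stained in one step (final 0.05% Triton X-100, 1% formaldehyde, 1 ug/ml Hoechst) and imaged at 4×. Doses were one drug alone or a fixed anchor-drug dose plus five library-drug doses (not always all listed) in √10 steps, and values are duplicate-plate medians.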

EHT 1864 + OSI-027 = compound: C1COCCN1CC2=CC(=O)C(=CO2)OCCCCCSC3=C4C=CC(=CC4=NC=C3)C(F)(F)F [EHT 1864] + COc1cccc2cc(-c3nc([C@H]4CC[C@H](C(=O)O)CC4)n4ncnc(N)c34)[nH]c12 [OSI-027] (partner 0.5 µM)
Method in brief: as §1

EHT 1864 + Foretinib = compound: C1COCCN1CC2=CC(=O)C(=CO2)OCCCCCSC3=C4C=CC(=CC4=NC=C3)C(F)(F)F [EHT 1864] + COc1cc2c(Oc3ccc(NC(=O)C4(C(=O)Nc5ccc(F)cc5)CC4)cc3F)ccnc2cc1OCCCN1CCOCC1 [Foretinib] (partner 0.25 µM)
Method in brief: as §1

EHT 1864 + AZD7762 = compound: C1COCCN1CC2=CC(=O)C(=CO2)OCCCCCSC3=C4C=CC(=CC4=NC=C3)C(F)(F)F [EHT 1864] + NC(=O)Nc1cc(-c2cccc(F)c2)sc1C(=O)N[C@H]1CCCNC1 [AZD7762] (partner 0.2 µM)
Method in brief: as §1

| Cell Line | relative viability (EHT 1864 + Pemetrexed; first compound 0.04 µM) | relative viability (EHT 1864 + Pemetrexed; first compound 0.1265 µM) | relative viability (EHT 1864 + Pemetrexed; first compound 0.4 µM) | relative viability (EHT 1864 + Pemetrexed; first compound 1.265 µM) | relative viability (EHT 1864 + Pemetrexed; first compound 4 µM) | relative viability (EHT 1864 + OSI-027; first compound 0.04 µM) | relative viability (EHT 1864 + OSI-027; first compound 0.1265 µM) | relative viability (EHT 1864 + OSI-027; first compound 0.4 µM) | relative viability (EHT 1864 + OSI-027; first compound 1.265 µM) | relative viability (EHT 1864 + OSI-027; first compound 4 µM) | relative viability (EHT 1864 + Foretinib; first compound 0.04 µM) | relative viability (EHT 1864 + Foretinib; first compound 0.1265 µM) | relative viability (EHT 1864 + Foretinib; first compound 0.4 µM) | relative viability (EHT 1864 + Foretinib; first compound 1.265 µM) | relative viability (EHT 1864 + Foretinib; first compound 4 µM) | relative viability (EHT 1864 + AZD7762; first compound 0.04 µM) | relative viability (EHT 1864 + AZD7762; first compound 0.4 µM) | relative viability (EHT 1864 + AZD7762; first compound 1.265 µM) | relative viability (EHT 1864 + AZD7762; first compound 4 µM) |
| --- | --- | --- | --- | --- | --- | --- | --- | --- | --- | --- | --- | --- | --- | --- | --- | --- | --- | --- | --- |
| NCI-H661 | 0.904 | 0.884 | 0.871 | 0.844 | 0.682 | 0.735 | 0.587 | 0.659 | 0.711 | 0.597 | 1.03 | 0.956 | 0.993 | 0.986 | 0.817 |  |  |  |  |
| UMC-11 | 0.763 | 0.706 | 0.843 | 0.764 | 0.888 | 0.463 | 0.366 |  | 0.483 | 0.47 | 0.935 | 0.962 |  | 1.07 | 1.11 |  |  |  |  |
| SK-MES-1 | 0.93 | 0.852 | 0.857 | 0.882 | 0.85 | 0.628 | 0.542 | 0.572 | 0.592 | 0.562 | 0.951 | 0.866 | 1.06 | 1.11 | 0.799 |  |  |  |  |
| NCI-H1650 | 0.384 | 0.327 | 0.331 | 0.36 | 0.358 |  |  | 0.599 | 0.638 | 0.611 |  |  | 1.18 | 0.896 | 0.92 |  |  |  |  |
| EBC-1 |  |  |  |  |  |  |  |  |  |  | 0.0988 | 0.119 | 0.116 | 0.115 | 0.0993 |  |  |  |  |
| SK-LU-1 | 0.982 | 0.935 | 1.03 | 0.872 | 0.901 | 0.357 | 0.262 | 0.32 | 0.33 | 0.312 | 0.843 | 0.772 | 0.779 | 0.775 | 0.746 |  |  |  |  |
| NCI-H1792 | 0.804 |  | 0.735 | 0.776 | 1.1 | 0.67 | 0.65 | 0.717 | 0.689 | 0.68 |  |  |  |  |  | 0.746 | 0.733 | 0.592 | 0.738 |
| SW 1573 | 0.737 |  | 0.78 | 0.869 | 0.775 | 0.592 | 0.54 | 0.605 | 0.482 | 0.55 | 0.805 | 0.722 | 0.816 | 0.746 | 0.896 |  |  |  |  |
| A549 |  |  |  |  |  |  |  |  |  |  | 0.995 | 0.986 | 0.978 | 0.815 | 0.714 |  |  |  |  |
| NCI-H1703 |  |  |  |  |  |  |  |  |  |  | 0.309 |  | 0.299 | 0.339 | 0.382 | 0.128 | 0.118 | 0.128 | 0.15 |
| NCI-H520 | 0.67 | 0.588 | 0.758 | 0.627 | 0.604 | 0.266 | 0.25 | 0.247 | 0.24 | 0.224 | 0.56 | 0.734 | 0.736 | 0.697 | 0.744 |  |  |  |  |
| NCI-H1563 | 0.682 | 0.709 | 0.742 | 0.626 | 0.74 | 0.735 | 0.796 | 0.763 | 0.701 | 0.699 | 0.962 | 0.896 | 0.978 | 0.857 | 0.908 |  |  |  |  |
| NCI-H2009 | 1.01 | 0.95 | 1.01 | 0.965 | 0.809 | 0.594 | 0.521 | 0.677 | 0.62 | 0.511 | 1.17 | 1.12 | 1.22 | 1.2 | 1.07 |  |  |  |  |
